Counter-ions that a name gives are not always drawn. Like-named read-outs stand apart in the source and are kept apart here.
Tested on: Staphylococcus haemolyticus CNCM I-4170
Experiment: Protocol A: in-vitro malodor inhibition (free thiol groups from Cys-Gly precursor, DTNB absorbance at 412 nm)
Assay type: cell-based
Conditions: for inhibition at 0.0012 % / inhibition at 0.0025 % / inhibition at 0.006 % / inhibition at 0.0125 % / inhibition at 0.025 % / inhibition at 0.05 % / inhibition at 0.1 % / inhibition at 0.005 %: Staphylococcus haemolyticus, CNCMI4170, read-out: Ingredient Malodor Inhibition Value (%); for inhibition at 0.005 %: 0.005 w/v % in medium
From the text: Further details of such a screening and % inhibition measurement and definition are described further on in this application. The precursor used, which may also be in the form of a human sweat sample, typically generates malodorant sulfur compounds when acted upon by the Staphylococcus haemolyticus cells, or by a β-lyase present in such cells. The malodor inhibition coefficient, as defined herein, reflects the % of reduction in free SH groups generated in the above-mentioned medium by the enzymatic activity of the bacterial cells when in presence of the MOC ingredient or MOC composition in question, as compared to the same measurement in their absence. […] Alternatively, the bacterial cells can be replaced by a β-lyase present in said cells. […] Detection of enzymatic activity inhibition is measured via the sulfur groups, namely thiol groups, freed from the precursor bacterial transformation, by comparison with the reference experiment in the absence of the respective MOC ingredient, said sulfur groups being detected by interaction with DTNB, a known chemical detector system for thiols. The reaction can be monitored by absorbance reading at 412 nm. The procedure can be performed indifferently with either a purified or semi-purified enzyme or intact bacterial cells, as in the case described here. Malodor inhibition coefficient is measured as a function of the percentage of free thiol groups in the medium, over time, by an absorbance method, and reflects the reduction in malodor obtained in the presence of the MOC ingredients and compositions. […] At the end of the growth phase, the bacterial cells were harvested by centrifugation at 5000 rpm for 15 min. The cell pellet was then washed with 0.1 volumes of sterile potassium phosphate buffer 0.1 M, pH 7.5. […] The precursor was used at 0.17 mM final concentration. • Detection reagent DTNB • DTNB (5,5′-Dithio-bis-(2-nitrobenzoic acid; […]

[1] = Table 2, 0.0012 w/v % in medium
[2] = Table 2, 0.0025 w/v % in medium
[3] = Table 2, 0.0125 w/v % in medium

Row | Compound | inhibition at 0.0012 % (0.0012 w/v % in medium) [%] | inhibition at 0.0025 % (0.0025 w/v % in medium) [%] | inhibition at 0.006 % (0.006 w/v % in medium) [%] | inhibition at 0.0125 % (0.0125 w/v % in medium) [%] | inhibition at 0.025 % (0.025 w/v % in medium) [%] | inhibition at 0.05 % (0.05 w/v % in medium) [%] | inhibition at 0.0012 % [1] [%] | inhibition at 0.0025 % [2] [%] | inhibition at 0.005 % (Table 2) [%] | other results
1 | CC(CCO)CC(C)(C)C (centres unmarked) [3,5,5-Trimethyl-1-hexanol] | 0 | 0 | 0 | 0 | 35 | 58.3 | – | – | – | inhibition at 0.1 % (0.1 w/v % in medium): 62.9%
2 | CC1C(C)(C)C2=C(C(=O)CCC2)C1(C)C (centres unmarked) [Cashmeran, 1,2,3,5,6,7-hexahydro-1,1,2,3,3-pentamethyl-4-indenone] | 0 | 0 | 19.2 | 54 | 71.5 | 70.1 | – | – | – | inhibition at 0.1 % (0.1 w/v % in medium): 73.2%
3 | C=CC(C)(O)CCC=C(C)CCC=C(C)C (centres unmarked) [Nerolidol] | 0 | 6.52 | 53.5 | 56.9 | 68.5 | 66.8 | – | – | – | –
4 | CC/C(=C\C[C@H]1CC=C(C)C1(C)C)CO [(-)-(2E)-2-Ethyl-4-[(1R)-2,2,3-trimethyl-3-cyclopenten-1-yl]-2-buten-1-ol] | 0 | 21.2 | 70.8 | 80 | 80.3 | – | – | – | – | –
5 | Terpenyl acetate | – | – | – | – | – | – | – | – | – | Ingredient Malodor Inhibition Value (%) (0.0012 w/v % in medium): 0.00%; Ingredient Malodor Inhibition Value (%) (0.0025 w/v % in medium): 0.00%; Ingredient Malodor Inhibition Value (%) (0.006 w/v % in medium): 0.00%; Ingredient Malodor Inhibition Value (%) (0.0125 w/v % in medium): 0.00%; Ingredient Malodor Inhibition Value (%) (0.025 w/v % in medium): 0.00%; Ingredient Malodor Inhibition Value (%) (0.05 w/v % in medium): 6.81%; Ingredient Malodor Inhibition Value (%) (0.1 w/v % in medium): 00.00%
6 | CCCCCCCCCCC=CC=O [2-Tridecenal (ethyl citrate solution), 2-Tridecenal] | – | – | – | – | – | – | 29 | 40.2 | 50 | inhibition at 0.0125 % [3]: 81%
7 | CCCCCCCCC=O [Nonanal] | – | – | – | – | – | – | 5.26 | 5.08 | 40.2 | inhibition at 0.0125 % [3]: 80.4%; inhibition at 0.025 % (Table 2, 0.025 w/v % in medium): 94.8%; inhibition at 0.05 % (Table 2, 0.05 w/v % in medium): 97.8%
8 | c1nc2c(o1)CCCCCCCCCC2 [4,5,6,7,8,9,10,11,12,13-Decahydrocyclododeca-1,3-oxazole] | – | – | – | – | – | – | 0 | 0 | 52.2 | –
9 | CC1(C)C2CC=C(CCC=O)C1C2 (centres unmarked) [3-(6,6-Dimethyl-bicyclo[3.1.1]hept-2-en-2-yl)propanal] | – | – | – | – | – | – | 0 | 4.58 | 82.9 | inhibition at 0.0125 % [3]: 96.7%; inhibition at 0.025 % (Table 2, 0.025 w/v % in medium): 100%; inhibition at 0.05 % (Table 2, 0.05 w/v % in medium): 96.3%
10 | CC(C)(C)c1ccc(CCC=O)cc1 [Bourgeonal, 3-(4-tert-butylphenyl)propanal] | 4.15 | 7.06 | 42.6 | – | – | – | – | – | – | –
11 | CC(C)(C)C1CCC(O)CC1 (centres unmarked) [4-tert-Butyl-1-cyclohexanol] | 0 | 0 | 0 | 0 | 59.8 | 89.1 | – | – | – | –
12 | CC1=CC[C@H](/C=C/C(C)(C)C(C)O)C1(C)C (single isomer, unassigned; (-)) [(-)-(1′R,E)-3,3-Dimethyl-5-(2′,2′,3′-trimethyl-3′-cyclopenten-1′-yl)-4-penten-2-ol] | – | – | – | – | – | – | – | – | – | Ingredient Malodor Inhibition Value (%) (0.0012 w/v % in medium): 0.00%; Ingredient Malodor Inhibition Value (%) (0.0025 w/v % in medium): 27.39%; Ingredient Malodor Inhibition Value (%) (0.006 w/v % in medium): 75.11%; Ingredient Malodor Inhibition Value (%) (0.0125 w/v % in medium): 76.95%; Ingredient Malodor Inhibition Value (%) (0.025 w/v % in medium): 76.65%
13 | CC(C)(O)CCC1CCCCC1 [Coranol ®, 4-cyclohexyl-2-methyl-2-butanol] | 0 | 0 | 10.8 | 49.8 | 77.7 | – | – | – | – | inhibition at 0.1 % (0.1 w/v % in medium): 77.8%

— patent publication US20150297482A1, “MALODOR COUNTERACTING COMPOSITIONS AND METHOD FOR THEIR USE TO COUNTERACT SWEAT MALODOR” (FIRMENICH SA, priority 2009, published 2015)
